Reference: patent US11077205B2, “Synthetic compound for improving efficiency of transfection” (Klinikum der Universität München, priority 2016, dated 2021)
The star is where a group is joined. ξ: configuration not given here. Lipoyl(6ξ) = O=C(CCCCC1CCSS1)*

Test system: 16HBE cells
Experiment: Cell endocytosis mechanism assay, uptake of Fluo-pDNA containing P704 based ternary complexes (flow cytometry)
Set-up: species or system human
Conditions: for endocytosis of ternary complexes in presence of free compound and its fragments (competition): FIG. 11c/11d
Description: In order to study the cellular uptake different binary and ternary complexes, 16 HBE cells (7×10^5/well) were seeded in 6-well plate 24 h before investigation. P704 based binary complexes were prepared by mixing P704 at the concentration of 63 (w/w) with Fluo-pDNA in Tyrode's solution. Compound 9 based binary complexes were prepared by mixing compound 9 at the N/P ratio of 5 with Fluo-pDNA in NF-water. P704 based ternary complexes consisted of P704 at the concentration of 63 (w/w), compound 0 (DL) or compound 9 at optimum N/P ratio and Fluo-pDNA. P304 based ternary complexes consisted of P304 at the concentration of 2000 (w/w), compound 8 at N/P ratio of 20 and Fluo-pDNA. P90R4 based ternary complexes consisted of P90R4 at the concentration of 1600 (w/w), compound 8 at N/P ratio of 15 and Fluo-pDNA. The amount of Fluo-pDNA in each sample was 4 μg/well. Naked Fluo-pDNA was served as a negative control. After 4 h incubation, medium was removed. The cells were harvested and rinsed with cold PBS for three times followed immediately by flow cytometry analysis. The amount of 10 000 live cells was collected for each sample.
With the purpose of identifying possible internalization mechanisms of ternary complexes by human bronchial epithelium cells, 16 HBE cells were pre-incubated at different temperatures or treated with specific agents at 37° C. for 1 h, then incubated with P704 based ternary complexes in the same conditions as described above. (I, II) To examine the effects of chlorpromazine and filipin, which were the clathrin- and caveolae-dependent endocytosis inhibitors, 10 μg/ml chlorpromazine or 1 μg/ml filipin in OptiMEM were used. (III) To study the effect of amiloride (macropinocytosis inhibitor), 0.3 mg/ml amiloride was adopted. (IV) To investigate the effect of protamine, an adsorptive-mediated endocytosis inhibitor, 1 mM protamine sulfate was added. […]

Substance | endocytosis of ternary complexes in presence of free compound and its fragments (competition) | cell uptake of ternary complexes at 4° C. and in the presence of NaN3 (FIG. 11a)
NH2-VKRKKKPKKRRRRKKWK(DL-lipoic acid)-CONH2 (H-VKRKKKPKKRRRRKKWK(Lipoyl(6ξ))-NH2; SMILES CC(C)[C@H](N)C(=O)N[C@@H](CCCCN)C(=O)N[C@@H](CCCNC(=N)N)C(=O)N[C@@H](CCCCN)C(=O)N[C@@H](CCCCN)C(=O)N[C@@H](CCCCN)C(=O)N1CCC[C@H]1C(=O)N[C@@H](CCCCN)C(=O)N[C@@H](CCCCN)C(=O)N[C@@H](CCCNC(=N)N)C(=O)N[C@@H](CCCNC(=N)N)C(=O)N[C@@H](CCCNC(=N)N)C(=O)N[C@@H](CCCNC(=N)N)C(=O)N[C@@H](CCCCN)C(=O)N[C@@H](CCCCN)C(=O)N[C@@H](Cc1c[nH]c2ccccc12)C(=O)N[C@@H](CCCCNC(=O)CCCCC1CCSS1)C(N)=O) [compound 0 (DL)] | cannot be inhibited by free compound 0 (DL) and its fragment sequence | 
KETWWETWWTEWWTEW-KKKKRRRRRKKKK-GACSERSMNFCG (KETWWETWWTEWWTEWKKKKRRRRRKKKKGACSERSMNFCG) [compound 9] | inhibited by free compound 9 and free peptide GACSERSMNFCG | Energy-dependent cell uptake
